Experimental data: patent US4006251A, “Bactericidal and fungicidal composition containing thiocarbanyl sulfenamides” (The B. F. Goodrich Company, priority 1973, dated 1977)
≈ marks a conversion by molar mass, not a printed value. Like-named read-outs stand apart in the source and are kept apart here.

Columns and labels:
[1] = tested on: various infectious organisms; assay: Activity against organisms, overall (Agar Screening Test and/or Penicillin Button Assay Test); assay type: cell-based; details: organisms (a) to (d)
Description: A. Agar Screening Test for Activity.
B. Penicillin Button Assay Test.

rabbits = assay: Acute dermal toxicity test; assay type: in vivo; details: classification according to federal regulations
Protocol: (§1) The thiocarbamylsulfenamide compounds were also evaluated as to their oral, dermal, and inhalation toxicity. The techniques employed are specified in Section 362.116 of the Regulations for the Enforcement of the Federal Insecticide, Fungicide, and Rodenticide Act, Interpretation 18 (Revised, Federal Register, April 4, 1969), or in the Federal Hazardous Substances Act. (Revised, Federal Register, September 17, 1964). Acute oral LD50, acute dermal LD50, and acute inhalation LC50 were determined; LD50 being the lethal dose for 50% of the test animals and LC50 being the lethal concentration for 50% of the test animals. Acute oral and acute inhalation tests were run using rats, while acute dermal testing was run using rabbits.
(§2) Two of the compounds evaluated for their activity against organisms (compounds A and G respectively in Example V) were tested for their toxicity following the procedure previously given in the specification.

[2] = Acute dermal toxicity test; assay type: in vivo, rabbits; details: rabbit, in vivo, topical or ocular; rabbits, dermal
Protocol: as §1, §2

[3] = Storage stability test, purity by titration before and after aging; assay type: physicochemical; details: for Percent Purity, after aging: air oven, closed bottles
Protocol: (§3) D. Storage Stability Tests.
Thiocarbamylsulfenamide compounds were tested for their stability upon storage at room temperature and after mild thermal aging. The principle test employed consisted of measuring the purity of a sample before and after aging. This was done by titrating a sample solution of the compound using potassium iodide, KI, and sodium thiosulfate, Na2 S2 O3. A 0.5 to 1.0 gram sample of the compound is weighed out and dissolved in 10 milliliters of chloroform. […] The calculations are: [formula] The value obtained is the percent by weight of the sample that is the desired thiocarbamylsulfenamide. The titration is run on the sample before and after aging. The change in purity of the compound indicates its decomposition upon storage.
(§4) This is important if the compounds are going to be used in disinfectant solutions, and stored and marked without a significant loss in activity against organisms. […] The compounds were aged in an air oven, while in closed bottles. The test methods used were previously described.

Acute oral toxicity test = details: rat, in vivo, rats
Protocol: as §1, §2

[4] = Storage stability test, melting point, appearance and odor before and after aging; assay type: physicochemical; details: for Melting point, after aging: air oven, closed bottles
Protocol: as §3
In addition to the titration test, other tests were run. The melting point of the compound was measured both before and after aging. Little or no change in melting point indicates good storage stability. Further, observations were made upon the appearance and odor of the compounds before and after aging.
as §4

rats = assay: Acute inhalation toxicity test; assay type: in vivo; details: classification according to federal regulations
Protocol: as §1, §2

[5] = Acute inhalation toxicity test; assay type: in vivo, rats; details: rat, in vivo, inhaled or intranasal; rats, inhalation
Protocol: as §1, §2

[6] = tested on: various infectious organisms; details: U.S. Pat. No. 2,692,862; cited from earlier work
[7] = before aging, sample for 50 °C, 10 days
[8] = before aging, sample for 80 °C, 16 hrs.

CCCCN(CCCC)C(=S)SN(C1CCCCC1)C1CCCCC1 [C, N,N-dibutylthiocarbamyl-N',N'-dicyclohexylsulfenamide]
activity against organisms (in words) [1]: no activity

CN(C)C(=S)SN(C1CCCCC1)C1CCCCC1 [Compound A, N,N-dimethylthiocarbamyl-N',N'-dicyclohexylsulfenamide]
toxicity by dermal absorption (in words) (rabbits): non-toxic | LD50 [2]: > 10000 mg/kg | Percent Purity, after aging ([3]; after aging, 50 °C, 10 days): 99% | Percent Purity, after aging ([3]; after aging, 80 °C, 16 hrs.): 97% | Percent Purity, before aging [3, 7]: 99% | Percent Purity, before aging [3, 8]: 100% | LD50 (Acute oral toxicity test): 1100 mg/kg | activity against organisms (in words) [1]: good activity against organisms | Amine odor, after aging ([4]; 50 °C, 10 days): slight | Melting point, after aging ([4]; 50 °C, 10 days): 85-87 °C | Amine odor, after aging ([4]; 80 °C, 16 hrs.): slight | Color, after aging ([4]; 80 °C, 16 hrs.): white | Melting point, after aging ([4]; 80 °C, 16 hrs.): 83-85 °C | Amine odor, before aging ([4]; sample for 50 °C, 10 days): slight | Color, before aging ([4]; sample for 50 °C, 10 days): white | Melting point, before aging ([4]; sample for 50 °C, 10 days): 85-87 °C | Amine odor, before aging ([4]; sample for 80 °C, 16 hrs.): slight | Color, before aging ([4]; sample for 80 °C, 16 hrs.): white | Melting point, before aging ([4]; sample for 80 °C, 16 hrs.): 84-85 °C | toxicity by inhalation (in words) (rats): non-toxic | LC50 [5]: 78 µg/mL (≈ 260 µM)

CCN(CC)C(=S)SN(C1CCCCC1)C1CCCCC1 [Compound B, N,N-diethylthiocarbamyl-N',N'-dicyclohexylsulfenamide]
activity against organisms (in words) [1]: good activity

S=C(SN1CCOCC1)N1CCOCC1 [Compound G, N-oxydiethylenethiocarbamyl-N'-oxydiethylenesulfenamide]
toxicity by dermal absorption (in words) (rabbits): non-toxic | LD50 [2]: > 10000 mg/kg | Percent Purity, before aging [3]: 98 | Percent Purity, after aging ([3]; 16 h): 98 | LD50 (Acute oral toxicity test): 5100 mg/kg | activity against organisms (in words) [1]: good activity against organisms | Amine odor, after aging ([4]; 80 °C, 16 hrs.): slight | Melting point, after aging ([4]; 80 °C, 16 hrs.): 135-139 °C | Amine odor, before aging ([4]; sample for 80 °C, 16 hrs.): slight | Color, before aging ([4]; sample for 80 °C, 16 hrs.): white | Melting point, before aging ([4]; sample for 80 °C, 16 hrs.): 136-139 °C | toxicity by inhalation (in words) (rats): non-toxic | LC50 [5]: 164 µg/mL (≈ 660 µM)

CN(C)C(=S)SNc1ccccc1 [Compound H, N,N-dimethylthiocarbamyl-N'-phenylsulfenamide]
activity against organisms (in words) [1]: good activity

CCCCCCCCCCCCCCCCCCCCN(CCCCCCCCCCCCCCCCCCCC)C(=S)SN(C1CCCCC1)C1CCCCC1 [D, N,N-dieicosylthiocarbamyl-N',N'-dicyclohexylsulfenamide]
activity against organisms (in words) [1]: no activity

S=C(SN(C1CCCCC1)C1CCCCC1)N1CCOCC1 [E, N-oxydiethylenethiocarbamyl-N',N'-dicyclohexylsulfenamide]
activity against organisms (in words) [1]: almost no activity

CCN(CC)C(=S)SNc1ccccc1 [I, N,N-diethylthiocarbamyl-N'-phenylsulfenamide]
activity against organisms (in words) [1]: very little activity

CN(C)SC(=S)N(C)C [J, N,N-dimethylthiocarbamyl-N',N'-dimethylsulfenamide, reference compound]
known activity against organisms (in words) [6]: known to have activity against organisms | Percent Purity, after aging ([3]; after aging, 50 °C, 10 days): 77% | Percent Purity, before aging [3, 7]: 96% | Amine odor, after aging ([4]; 50 °C, 10 days): strong | Color, after aging ([4]; 50 °C, 10 days): yellow | Melting point, after aging ([4]; 50 °C, 10 days): 34-39 °C | Amine odor, before aging ([4]; sample for 50 °C, 10 days): slight | Melting point, before aging ([4]; sample for 50 °C, 10 days): 49-51 °C

CC(C)N(SC(=S)N(C)C)C(C)C [K, N,N-dimethylthiocarbamyl-N',N'-diisopropylsulfenamide, reference compound]
known activity against organisms (in words) [6]: known to have activity against organisms | Percent Purity, after aging ([3]; after aging, 80 °C, 16 hrs.): 89% | Percent Purity, before aging [3, 8]: 93% | Amine odor, after aging ([4]; 80 °C, 16 hrs.): strong | Melting point, after aging ([4]; 80 °C, 16 hrs.): 53-54 °C | Amine odor, before aging ([4]; sample for 80 °C, 16 hrs.): mild | Color, before aging ([4]; sample for 80 °C, 16 hrs.): white | Melting point, before aging ([4]; sample for 80 °C, 16 hrs.): 56-57 °C
